Test results: patent US11684660B2, “Human PD1 peptide vaccines and uses thereof” (OHIO STATE INNOVATION FOUNDATION, priority 2017, dated 2023)
No end group written: not given here.

Experiments:
human IgG = test: BIACORE SPR binding to immobilized human IgG; settings: 1 μM injected 3 min at 10 μl/min
Procedure: 126. […] 1 μM BSA was used as the negative control. The chip was regenerated by 10 mM Glycine-HCl, pH 2.5(FIG. 3E).

Nivolumab = test: BIACORE SPR binding to immobilized Nivolumab; settings: 1 μM peptide; for SPR response of peptide binding to immobilized Nivolumab: 1 min at 10 μl/min
Procedure: (§1) 1 μM BSA was used as the negative control. The chip was regenerated by 10 mM Glycine-HCl, pH 2.5(FIG. 3E).
(§2) 1 μM of various PD-1 peptides were injected over the chip for 1 min at 10 μl/min followed by 1 min dissociation and then 1 min regeneration with 10 mM Glycine-HCl, pH 2.5 for each run.

[1] = test system: murine colon carcinoma CT26 tumor cells; test: CT26 tumor challenge in Balb/c mice immunized with PD-1 constructs; type: in vivo; settings: for median terminal tumor weight: end of study; for median terminal tumor weight / median tumor size LWH, Day 19 / median tumor size LWW, Day 19 / median tumor size LWH, Day 14 / median tumor size LWW, Day 14: 5 mice/group; for difference in tumor size distribution versus controls: exact Wilcoxon rank-sum test, two-sided, unadjusted; for median tumor size LWH, Day 14: ½*length*width*height; for median tumor size LWW, Day 14: ½*length*width*width; for inhibition of tumor growth: Day 14, FIG. 15
Procedure: Immunocompetent Balb/c mice of 6-8 weeks of age were purchased from Charles River Laboratories, Wilmington, Mass. and housed in The Ohio State University's University Laboratory Animal Resources (ULAR) facilitates. Isoflurane was used to anaesthetize the animals before cells injection and termination. Pre-immune sera samples were taken from the mice then they were immunized with 100 μg of peptide emulsified in Montanide ISA 720 (Seppic, Paris, France) and nor-MDP adjuvant (N-acetyl-glucosamine-3 yl-acetyl L-alanyl-D-isoglutamine). Mice received booster immunizations 3 and 6 weeks after the first. Several test sera samples were taken from the mice (FIG. 8).
10 days after the second boost, mice were inoculated with […] murine colon carcinoma CT26 tumor cells subcutaneous on the right flank. Tumor growth was monitored three times a week and sera samples were taken weekly and upon sacrifice of the animal. Control mice on day 0 were engrated with 1×10^5 CT26 tumor cells subcutaneous and received. The animals received 150 μg injections of anti-mouse antibodies directed against PD-1. Mice were monitored and scored for the formation of palpable tumors twice weekly and sacrificed if tumors became necrotic or exceeded the predetermined size of 2,000 mm3. Tumor diameters were measured twice a week. Tumor size was calculated according to the formula: V=[(length ×width2)/2]. Tumor volumes were measured in cubic millimeters with calipers and calculated with the following formula: A×B2×0.5, where A is the largest diameter, and B is the smallest diameter. All experiments were performed in accordance with the U.S. Public Health Service Policy on Humane Care and Use of Laboratory Animals and approved by the Ohio State University Institutional Animals Care and Use Committee and detailed in the accepted protocol
To assess performance of 4 different vaccine treatments on tumor growth, tumor size was measured periodically in mice, and the results were compared to those of positive and negative controls. There were 5 mice in each treatment group, each receiving the assigned MVF-peptide and then being inoculated with 1e5 CT26 (colon) tumor cells 10 days after the final boost of the treatment. Day 14 was considered the primary time point of interest, as the investigators believed waiting until day 19 allowed the tumors too much time to grow, resulting in similar sizes at that point of the experiment. Tumor size was measured in three ways: LWW (½*length*width*width) at all time points, LWH (½*length*width*height) at all time points, and terminal tumor weight at the end of the study. The mice treated with MVF-PD-a(45), group C, were sacrificed before day 19 due to the death of one mouse, so the comparisons can only be made between tumor size at day 14. Tumor size is in units of mm3 for LWW and LWH and grams for terminal tumor weight.
Due to small sample sizes in each group and inability to assume normality, the exact Wilcoxon rank-sum test was used to check for systematic differences between the distributions of tumor size at times 14 days and 19 days (FIGS. 12A-D and Tables 7-10). P-values given are for test comparing that column's control to the respective treatment, and are two-sided to account for the possibility of tumor size being systematically larger or smaller between treatment and control. As this is preliminary data, the p-values are not adjusted for multiple comparisons. Overall, there were few instances of significant differences between the distributions of a control and a treatment.
Immunocompetent Balb/c mice (5 mice/gp) of 6-8 weeks of age were immunized with 100 μg of peptide emulsified in Montanide ISA 720 (Seppic, Paris, France) and nor-MDP adjuvant (N-acetyl-glucosamine-3 yl-acetyl L-alanyl-D-isoglutamine). […]

CD4+CD25+FoxP3+ Tregs = test: Immune-profiling of T cells in spleen and tumor by flow cytometry; type: in vivo, Balb/c mice
Procedure: CD4 and CD8 cells were determined by flow cytometry (gated on CD45+CD3+ cells). Foxp3+CD25+CD4 T regulatory cells were determined by intracellular staining. All CD4 and CD8 T cells were gated on CD45+CD3+ cells. Tregs were gated on CD45+CD3+CD4+ cells. Group A=control peptide, Group B=32-50; Group C=45-64; Group D=73-90; Group E=92-110; Group F=α-mouse PD-1 (positive control).
The tumor and tumor draining lymph nodes were collected for subsequent FACS analysis to study the immune response in mice. Cells suspensions were prepared from tissues either by mechanistic dissociation or by enzymatic digestion. The stained cells were analyzed with a LSR II flow cytometer (BD Biosciences) equipped with 3 excitation lasers at wavelengths 405, 488 and 633 nm. CD8+ T cells and CD4+CD25+ T cells from tumor leucocytes were purified either on a MACS column or FACSAria.
Flow cytometric analysis was performed to evaluate the expression of surface markers (CD45, CD3, CD4, CD8 and CD25) and transcription factor FoxP3 in splenocytes and tumor infiltrating T cells. Briefly, spleens were removed from mice and pressed through cell strainers, followed by a short incubation with red blood cells lysis buffer to lyse the red blood cells. Cells were then collected, washed, and resuspended in staining buffer (1% BSA in PBS). Similarly, tumors were removed from mice and pressed through cell strainers, followed by one wash with 37% percoll. The tumor cells were then washed with PBS and resuspended in staining buffer. The splenocytes and tumor cells were incubated with mAbs to the cell-surface markers for 30 min at 4° C. After washing twice with staining buffer, cells were fixed and permeabilized using Cytofix/Cytoperm solution for 60 min at 4° C. Cells were stained for FoxP3 for 30 min at 4° C. 80,000-100,000 live cell events were acquired on a FACSCanto (BD) and analyzed using FlowJo software (Tree Star, Inc.). To differentiate infiltrating cells from tumor cells, the tumor cells were first gated on CD45+ cells. Then the CD3+CD4+ and CD3+CD8+ cells were analyzed. Tregs were represented by CD4+CD25+FoxP3+ cells. […] Group E had the lowest Treg.

[2] = molecular target: T1, extracellular domain of human PD-L1 (hPD-L1) (Homo sapiens, UniProt Q9NZQ7); test: BIACORE SPR binding to immobilized rhPD-L1; settings: 1 μM peptide; for SPR response of peptide binding to immobilized rhPD-L1: 1 min at 10 μl/min
T1 construct: Recombinant hPD-L1 ectodomain was immobilized onto the gold surface of a CM5 sensor chip
T1 sequence (Q9NZQ7 19-238 limits assumed): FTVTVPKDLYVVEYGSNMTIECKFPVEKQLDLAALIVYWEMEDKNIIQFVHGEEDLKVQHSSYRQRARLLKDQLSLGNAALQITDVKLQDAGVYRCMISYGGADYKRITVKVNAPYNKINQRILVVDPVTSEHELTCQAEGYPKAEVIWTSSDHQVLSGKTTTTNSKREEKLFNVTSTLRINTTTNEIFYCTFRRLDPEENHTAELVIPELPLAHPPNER
Procedure: To test the activity of all the selected peptides, surface plasmon resonance (SPR) spectroscopy (BIACORE™ T200, at […]) was used to measure their binding affinities to the extracellular domain of human PD-L1 (hPD-L1). Recombinant hPD-L1 ectodomain was immobilized onto the gold surface of a CM5 sensor chip by direct amine coupling.
as §1, §2

Substance | difference in tumor size distribution versus controls [1] | median tumor size LWH, Day 14 [1] [mm3] | median tumor size LWW, Day 14 [1] [mm3] | binding to immobilized rhPD-L1 (in words) [2] | binding to immobilized Nivolumab (in words) (Nivolumab) | further results
rhPD-1: recombinant human PD-1 (hPD-1) ectodomain used to validate the sensor chip | – | – | – | – | – | SPR response on immobilized human IgG (chip validation) (human IgG): didn't show any binding signal
KLLSLIKGVIVHRLEGVE-GPSL-VLNWYRMSPSNQTDKLAAF-CONH2 (KLLSLIKGVIVHRLEGVEGPSLVLNWYRMSPSNQTDKLAAF-NH2) [MVF-PD-1 (32-50)] | no significant differences | 420 | 486 | – | – | SPR response of peptide binding to immobilized Nivolumab (Nivolumab): 20 RU; median terminal tumor weight [1]: 0.92 grams; median tumor size LWH, Day 19 [1]: 900 mm3; median tumor size LWW, Day 19 [1]: 1080 mm3
KLLSLIKGVIVHRLEGVE-GPSL-KLAAFPEDRSQPGQDCRFR-CONH2 (KLLSLIKGVIVHRLEGVEGPSLKLAAFPEDRSQPGQDCRFR-NH2) [MVF-PD-1 (45-64)] | no significant differences | 448 | 550 | bind | – | Treg population in spleen compared to Group A (negative control) (CD4+CD25+FoxP3+ Tregs; splenocytes, FIG. 10A): increased Treg population; Tregs in tumor (CD4+CD25+FoxP3+ Tregs; tumor infiltrating cells, FIG. 10B): increased Treg development in tumor microenvironment; SPR response of peptide binding to immobilized rhPD-L1 [2]: around 110 RU; inhibition of tumor growth [1]: not inhibitory
CH3CONH-DFHMSVVRARRNDSGTYL-CONH2 (Ac-DFHMSVVRARRNDSGTYL-NH2) [AC-PD-1 (73-90)] | – | – | – | bind | bind | –
H2N-DFHMSVVRARRNDSGTYL-CONH2 (H-DFHMSVVRARRNDSGTYL-NH2) [PD-1 (73-90)] | – | – | – | much stronger binding | much stronger binding | –
H2N-KLAAFPEDRSQPGQDCRFR-CONH2 (H-KLAAFPEDRSQPGQDCRFR-NH2) [PD-1 (45-64)] | – | – | – | second stronger binder | second stronger binder | –
CH3CONH-GAISLAPKAQIKESLRAEL-CONH2 (Ac-GAISLAPKAQIKESLRAEL-NH2) [AC-PD-1 (92-110)] | – | – | – | bind | bind | –
KLLSLIKGVIVHRLEGVE-GPSL-DFHMSVVRARRNDSGTYL-CONH2 (KLLSLIKGVIVHRLEGVEGPSLDFHMSVVRARRNDSGTYL-NH2) [MVF-PD-1 (73-90)] | no significant differences | 346.5 | 405 | bind | bind | SPR response of peptide binding to immobilized Nivolumab (Nivolumab): 1000 RU; SPR response of peptide binding to immobilized rhPD-L1 [2]: around 110 RU; inhibition of tumor growth [1]: not inhibitory; median terminal tumor weight [1]: 0.93 grams; median tumor size LWH, Day 19 [1]: 768 mm3; median tumor size LWW, Day 19 [1]: 968 mm3
CH3CONH-KLAAFPEDRSQPGQDCRFR-CONH2 (Ac-KLAAFPEDRSQPGQDCRFR-NH2) [AC-PD-1 (45-64)] | – | – | – | bind | bind | –
